US9206200B2, “N-linked lactam M1 receptor positive allosteric mogulators” (Merck Sharp & Dohme Corp., priority 2011, dated 2015)

Target: T1, acetylcholine muscarinic M1 receptor (Homo sapiens, UniProt P11229)
T1 construct: expressed in transfected cells; host or cells: CHOnfat cells (CHO cells with an NFAT reporter) expressing hM1, kept under Geneticin selection
T1 sequence (P11229 1-460): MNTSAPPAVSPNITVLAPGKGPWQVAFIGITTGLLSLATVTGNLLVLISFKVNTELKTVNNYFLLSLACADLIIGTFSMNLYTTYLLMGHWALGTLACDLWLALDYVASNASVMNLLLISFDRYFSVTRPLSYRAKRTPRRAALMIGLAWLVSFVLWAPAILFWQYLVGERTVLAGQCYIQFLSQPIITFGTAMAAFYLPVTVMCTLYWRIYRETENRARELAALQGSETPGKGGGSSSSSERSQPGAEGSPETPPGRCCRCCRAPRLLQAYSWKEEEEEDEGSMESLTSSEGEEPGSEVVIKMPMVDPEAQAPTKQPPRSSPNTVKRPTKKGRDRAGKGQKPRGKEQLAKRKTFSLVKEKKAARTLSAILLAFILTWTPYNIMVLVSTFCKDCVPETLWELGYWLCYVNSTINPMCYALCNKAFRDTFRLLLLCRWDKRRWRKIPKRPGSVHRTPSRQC
Experiment: muscarinic FLIPR assay: intracellular calcium in CHOnfat/hM1 cells, potentiation of EC20 acetylcholine
Assay type: cell-based
Conditions: Table 1; CHOnfat/hM1 cells, FLIPR, EC20 acetylcholine (3 nM final); read-out: M1 Pot.
Protocol: The assay studies the effect of one or several concentrations of test compounds on basal or acetylcholine-stimulated Ca^2+ levels using FLIPR.
Compounds are prepared and subjected to a preincubation period of […]. Thereafter, a single EC20 concentration of acetylcholine is added to each well (3 nM final). The intracellular Ca^2+ level of each sample is measured and compared to an acetylcholine control to determine any modulatory activity.
Cells: CHOnfat/hM1, hM2, hM3 or hM4 cells are plated 24 hr before the assay at a density of 18,000 cells/well (100 μL) in a 384 well plate. CHOnfat/hM1 and CHOnfat/hM3 Growth Medium: 90% DMEM (Hi Glucose); 10% HI FBS; 2 mM L-glutamine; 0.1 mM NEAA; Pen-Strep; and 1 mg/ml Geneticin, are added. For M2Gqi5CHOnfat and M4Gqi5CHOnfat cells, an additional 600 ug/ml hygromycin is added.
Equipment: 384 well plate, 120 μl, addition plate; 96-well Whatman 2 ml Uniplate Incubator, 37° C., 5% CO2; Skatron EMBLA-384 Plate Washer; Multimek Pipetting System; Genesis Freedom 200 System; Mosquito System; Temo Nanolitre Pipetting System; and FLIPR^384 Fluorometric Imaging Plate Reader System are used.
Buffers. Assay Buffer: Hanks Balanced Salt Solution, with 20 mM Hepes, 2.5 mM Probenecid (Sigma P-8761) first dissolved in 1 N NaOH, 1% Bovine Serum Albumin (Sigma A-9647). Dye Loading Buffer: Assay Buffer plus 1% Fetal Bovine Serum and Fluo-4AM/Pluronic Acid Mixture. 2 mM Fluo-4AM ester stock in DMSO (Molecular Probes F-14202) Concentration of 2 μM in buffer for a final concentration of 1 μM in Assay. 20% Pluronic Acid Solution stock, with concentration of 0.04% in Buffer, 0.02% in Assay.
65 μL of 2 mM Fluo-4AM are mixed with 130 μL of 20% Pluronic Acid. The resulting solution and 650 μL FBS is added to the assay buffer for a total volume of 65 mL. Positive Controls: 4-Br-A23187: 10 mM in DMSO; final concentration 10 μM. Acetylcholine: 10 mM in water, working stock at both 20 μM and 30 μM in assay buffer, final concentration of 10 μM. This is used to check the maximum stimulation of the CHOK1/hM1 cells. 20 μM (2×) acetylcholine is added in the preincubation part of the assay, and the 30 μM (3×) stock is added in the second part. (EC20)Acetylcholine: 10 mM in water, working stock of 9 nM (3×), and final concentration in assay is 3 nM. This is used after the preincubation with test compounds. Addition of the EC20 Acetylcholine to each well with a test compound will ascertain any modulator activity. 24 wells contain 3 nM Acetylcholine alone as a control.
Determining Activity of Putative Compounds:
Screening Plate Compounds are titrated in 96-well plates (columns 2-11), 100% DMSO, started at a concentration of 15 mM (150× stock concentration), and 3-fold serial dilutions using Genesis Freedom200 System. Four 96-well plates are combined into a 384-well plate using Mosquito Nanolitre Pipetting System by transferring 1 μl of serial diluted compounds to each well, and 1 mM acetylcholine (100× stock concentration) were added as a control. Using Temo, 49 μl assay buffer is added to each well of the 384-well plate right before assay.
In a 96-well Whatman 2 ml Uniplate, 9 nM Acetylcholine (3×) is pipetted into wells corresponding to the screening compounds, and into control wells. The 30 μM acetylcholine control (3×) is added into control wells, and the 3× agonist plate is transferred into a 384 well plate.
Cells are washed three times with 100 μL of buffer, leaving […] of buffer in each well. Using Multimek, 30 μL of Dye Loading Buffer is added into each well and incubated at 37° C., 5% CO2 for up to one hr.
After 60 min, the cells are washed three times with 100 μL of buffer, leaving 30 μL of buffer in each well. The cell plate, screening plate, and agonist addition plates are placed on the platform in the FLIPR and the door closed. A signal test to check background fluorescence and basal fluorescence signal is performed. Laser intensity is adjusted if necessary.

SMILES	EC50
CS(=O)(=O)N1CCN(Cc2cc3c(c4ccccc24)CN(C2CCCCC2O)C3=O)CC1 (stereo not drawn) [Example 15, 2-(2-hydroxycyclohexyl)-5-{[4-(methylsulfonyl)piperazin-1-yl]methyl}-1,2-dihydro-3H-benzo[e]isoindol-3-one]	720 nM
CC1CCCN(Cc2cc3c(c4ccccc24)CN(C2CCCCC2O)C3=O)C1 (stereo not drawn) [Example 16, 2-(2-hydroxycyclohexyl)-5-[(3-methylpiperidin-1-yl)methyl]-1,2-dihydro-3H-benzo[e]isoindol-3-one]	7800 nM
O=C1c2cc(CN3CCCC(F)C3)c3ccccc3c2CN1C1CCCCC1O (stereo not drawn) [Example 17, 5-[(3-fluoropiperidin-1-yl)methyl]-2-(2-hydroxycyclohexyl)-1,2-dihydro-3H-benzo[e]isoindol-3-one]	320 nM
O=C1c2cc(CN3CCCC(F)(F)C3)c3ccccc3c2CN1C1CCCCC1O (stereo not drawn) [Example 18, 5-[(3,3-difluoropiperidin-1-yl)methyl]-2-(2-hydroxycyclohexyl)-1,2-dihydro-3H-benzo[e]isoindol-3-one]	160 nM
N#CC1(F)CCN(Cc2cc3c(c4ccccc24)CN([C@H]2CCCC[C@@H]2O)C3=O)CC1 [Example 19, 4-fluoro-1-({2-[(1S,2S)-2-hydroxycyclohexyl]-3-oxo-2,3-dihydro-1H-benzo[e]isoindol-5-yl}methyl)piperidine-4-carbonitrile]	37 nM
N#CC1CCN(Cc2cc3c(c4ccccc24)CN([C@H]2CCCC[C@@H]2O)C3=O)CC1 [Example 20, 1-({2-[(1S,2S)-2-hydroxycyclohexyl]-3-oxo-2,3-dihydro-1H-benzo[e]isoindol-5-yl}methyl)piperidine-4-carbonitriIe]	93 nM
CC1CCN(Cc2cc3c(c4ccccc24)CN([C@H]2CCCC[C@@H]2O)C3=O)CC1 [Example 21, 2-[(1S,2S)-2-hydroxycyclohexyl]-5-[(4-methylpiperidin-1-yl)methyl]-1,2-dihydro-3H-benzo[e]isoindol-3-one]	1500 nM
O=C1c2cc(CN3CCC(O)CC3)c3ccccc3c2CN1C1CCCCC1O (stereo not drawn) [Example 22, 2-(2-hydroxycyclohexyl)-5-[(4-hydroxypiperidin-1-yl)methyl]-1,2-dihydro-3H-benzo[e]isoindol-3-one]	480 nM
O=C1c2cc(CN3CCCC3)c3ccccc3c2CN1C1CCCCC1O (stereo not drawn) [Example 23, 2-(2-Hydroxycyclohexyl)-5-(pyrrolidin-1-ylmethyl)-1,2-dihydro-3H-benzo[e]isoindol-3-one]	3800 nM
O=C1c2cc(CN3CCOCC3)c3ccccc3c2CN1C1CCCCC1O (stereo not drawn) [Example 24, 2-(2-hydroxycyclohexyl)-5-(morpholin-4-ylmethyl)-1,2-dihydro-3H-benzo[e]isoindol-3-one]	150 nM
O=C1c2cc(CN3CCC(F)(F)CC3)c3ccccc3c2CN1C1CCCCC1O (stereo not drawn) [Example 25, 5-[(4,4-difluoropiperidin-1-yl)methyl]-2-(2-hydroxycyclohexyl)-1,2-dihydro-3H-benzo[e]isoindol-3-one]	12 nM
O=C1c2cc(CN3CCC(F)CC3)c3ccccc3c2CN1C1CCCCC1O (stereo not drawn) [Example 26, 5-[(4-fluoropiperidin-1-yl)methyl]-2-(2-hydroxycyclohexyl)-1,2-dihydro-3H-benzo[e]isoindol-3-one]	160 nM
O=C1c2cc(CN3CCC(C(F)(F)F)CC3)c3ccccc3c2CN1C1CCCCC1O (stereo not drawn) [Example 27, 2-(2-hydroxycyclohexyl)-5-{[4-(trifluoromethyl)piperidin-1-yl]methyl}-1,2-dihydro-3H-benzo[e]isoindol-3-one]	360 nM
O=C1c2cc(CN3CC(O)C(F)C3)c3ccccc3c2CN1C1CCCCC1O (stereo not drawn) [Example 28, 5-[(3-fluoro-4-hydroxypyrrolidin-1-yl)methyl]-2-(2-hydroxycyclohexyl)-1,2-dihydro-3H-benzo[e]isoindol-3-one]	1200 nM
O=C1c2cc(CN3CCCC3C(F)(F)F)c3ccccc3c2CN1C1CCCCC1O (stereo not drawn) [Example 30, 2-(2-hydroxycyclohexyl)-5-{[2-(trifluoromethyl)pyrrolidin-1-yl]methyl}-1,2-dihydro-3H-benzo[e]isoindol-3-one]	2700 nM
